In ChEMBL document CHEMBL3132808, “Exceptionally strong intermolecular association in hydrophobic DNA minor groove binders and their potential therapeutic consequences” (Medchemcomm, 2013):
Activity calls are given as the source filed them. No cut-off for these calls is given here.

Test system: Nucleic Acid
Experiment: Binding affinity to […] DNA oligomer d(CGATATATCG)2 (unknown origin) minor groove assessed as association constant by NMR
Format: nucleic-acid assay

| Ka | Structure (SMILES) |
| --- | --- |
| inactive | CC(C)c1sc(NC(=O)c2cc(NC(=O)c3cc(NC=O)cn3C)cn2C)nc1C(=O)NCCCN(C)C |
| inactive | COc1cccc(/C=C/c2ccc(C(=O)Nc3cc(C(=O)NCCN4CCOCC4)n(C)c3)cc2)c1 |
| 6.1 ×10⁴ /M | CC(C)c1sc(NC(=O)c2cc(NC(=O)c3cc(NC(=O)c4cccnc4)cn3C)cn2C)nc1C(=O)NCCCN(C)C |
| inactive | CC(=O)Nc1cn(C)c(C(=O)Nc2cc(C(=O)Nc3nc(C(=O)NCCCN(C)C)c(C(C)C)s3)n(C)c2)n1 |
